{"source": "paper PMC9178789", "key": {"[1]": {"test": "Thioether stapling in folded myoglobin: Cys thiol SN2 on the chloroacetamide of genetically encoded p-chloroacetamido-Phe (pCaaF), loss of HCl; spontaneous during E. coli expression (27 °C overnight) and purification, then overnight incubation at pH ~8.5", "settings": "the molecule shown is the open-chain precursor, aqueous (E. coli cytosol, then KPi buffer adjusted to pH ~8.5), other, scale: % stapled"}, "[2]": {"test": "Thioether stapling in folded myoglobin: Cys thiol SN2 on the bromoethyl ether of genetically encoded O-2-bromoethyl tyrosine (O2beY), loss of HBr", "settings": "the molecule shown is the open-chain precursor, aqueous (E. coli expression), other, scale: 1 = efficient/successful stapling, 0.5 = partial, 0 = failed, cited from earlier work"}}, "data": [{"substance": "sperm whale Mb(H64V,V68A) + D20S, G23C, D27A, R118pCaaF", "values": [{"measurement": "ring closure, conversion by HPLC", "setting": "[1]; 296-membered ring", "result": 100}]}, {"substance": "sperm whale Mb(H64V,V68A) + D27pCaaF, H113C, V114G", "values": [{"measurement": "ring closure, conversion by HPLC", "setting": "[1]; 269-membered ring", "result": 100}]}, {"substance": "sperm whale Mb(H64V,V68A) + G5O2beY, D126C", "values": [{"measurement": "ring closure, product found", "setting": "[2]; 374-membered ring", "result": 1}]}, {"substance": "sperm whale Mb(H64V,V68A) + G5pCaaF, D126C", "values": [{"measurement": "ring closure, conversion by HPLC", "setting": "[1]; 374-membered ring", "result": 100}]}, {"substance": "sperm whale Mb(H64V,V68A) + G5pCaaF, H36pCaaF, E109C, D126C", "values": [{"measurement": "ring closure, conversion by HPLC", "setting": "[1]", "result": 100}]}, {"substance": "sperm whale Mb(H64V,V68A) + G5pCaaF, H36pCaaF, E109C, H113E, D126C", "values": [{"measurement": "ring closure, conversion by HPLC", "setting": "[1]", "result": 100}]}, {"substance": "sperm whale Mb(H64V,V68A) + H36O2beY, E109C", "values": [{"measurement": "ring closure, product found", "setting": "[2]; 230-membered ring", "result": 1}]}, {"substance": "sperm whale Mb(H64V,V68A) + H36pCaaF, E109C", "values": [{"measurement": "ring closure, conversion by HPLC", "setting": "[1]; 230-membered ring", "result": 78}]}, {"substance": "sperm whale Mb(H64V,V68A) + K16C, H119A, G121O2beY, D122S", "values": [{"measurement": "ring closure, product found", "setting": "[2]; 326-membered ring", "result": 0}]}, {"substance": "sperm whale Mb(H64V,V68A) + K16C, H119A, G121pCaaF, D122S", "values": [{"measurement": "ring closure, conversion by HPLC", "setting": "[1]; 326-membered ring", "result": 60}]}, {"substance": "sperm whale Mb(H64V,V68A) + L9R, H12C, D122T, A127O2beY", "values": [{"measurement": "ring closure, product found", "setting": "[2]; 356-membered ring", "result": 1}]}, {"substance": "sperm whale Mb(H64V,V68A) + L9R, H12C, D122T, A127pCaaF", "values": [{"measurement": "ring closure, conversion by HPLC", "setting": "[1]; 356-membered ring", "result": 100}]}, {"substance": "sperm whale Mb(H64V,V68A) + R31O2beY, S35K, E109C", "values": [{"measurement": "ring closure, product found", "setting": "[2]; 245-membered ring", "result": 0}]}, {"substance": "sperm whale Mb(H64V,V68A) + R31pCaaF, S35K, E109C", "values": [{"measurement": "ring closure, conversion by HPLC", "setting": "[1]; 245-membered ring", "result": 100}]}]}
